Measured values taken from article PMC10458471, “Electrophysiological Assessment of Newly Synthesized 2,3-Benzodiazepine Derivatives for Inhibiting the AMPA Receptor Channel” (Molecules, 2023).
Where two headings read alike, the source gives them in different places.

Legend:
Type in all cases: cell-based
GluA1 = biological target: T1, GluA1 (Rattus norvegicus, UniProt P19490); test: Whole-cell patch-clamp recording of homomeric GluA1 AMPAR expressed in HEK293T cells; conditions: for Amplitude with compound: 10 mM glutamate + 16 µM compound, mean±SEM; for Amplitude with compound / A/AI (current amplitude ratio without/with compound) / t deact (weighted deactivation time constant) / t des (weighted desensitization time constant) / Amplitude, applying glutamate alone after compound: n=8; for A/AI (current amplitude ratio without/with compound): 10 mM glutamate, 16 µM compound; for t deact (weighted deactivation time constant): 1 ms 10 mM glutamate + 16 µM compound; for t des (weighted desensitization time constant): 500 ms 10 mM glutamate + 16 µM compound; for Amplitude, applying glutamate alone after compound: washout/recovery
T1 construct: expressed in transfected cells; host or cells: HEK293T
T1 sequence (P19490 19-907 isoform P19490-2 limits assumed): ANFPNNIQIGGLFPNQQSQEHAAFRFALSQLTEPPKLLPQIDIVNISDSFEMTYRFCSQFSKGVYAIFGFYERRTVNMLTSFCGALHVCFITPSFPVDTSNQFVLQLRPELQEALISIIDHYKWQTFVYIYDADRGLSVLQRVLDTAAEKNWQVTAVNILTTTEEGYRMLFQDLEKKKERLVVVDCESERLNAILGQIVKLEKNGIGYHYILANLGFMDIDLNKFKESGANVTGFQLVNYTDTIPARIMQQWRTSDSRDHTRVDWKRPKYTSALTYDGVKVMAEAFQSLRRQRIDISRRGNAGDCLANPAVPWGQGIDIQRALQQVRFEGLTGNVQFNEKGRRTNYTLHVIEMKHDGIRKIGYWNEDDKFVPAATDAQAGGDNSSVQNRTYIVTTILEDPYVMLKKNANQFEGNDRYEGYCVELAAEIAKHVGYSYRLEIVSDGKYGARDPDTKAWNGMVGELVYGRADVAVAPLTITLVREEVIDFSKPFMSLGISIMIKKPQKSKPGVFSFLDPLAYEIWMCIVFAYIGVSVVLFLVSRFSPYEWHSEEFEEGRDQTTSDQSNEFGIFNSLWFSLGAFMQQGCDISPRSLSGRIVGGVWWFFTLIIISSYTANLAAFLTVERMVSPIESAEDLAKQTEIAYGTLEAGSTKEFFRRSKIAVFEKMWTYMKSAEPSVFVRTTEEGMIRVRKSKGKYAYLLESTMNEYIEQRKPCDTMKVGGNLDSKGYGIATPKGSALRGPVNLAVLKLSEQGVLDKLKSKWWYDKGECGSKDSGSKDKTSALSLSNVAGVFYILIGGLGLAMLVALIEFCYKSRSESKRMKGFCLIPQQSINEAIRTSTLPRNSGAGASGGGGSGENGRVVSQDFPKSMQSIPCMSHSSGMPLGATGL
Method: (§1) For the DNA preparation, the QIAGEN Plasmid Mini Kit was used to prepare up to 20 µg of high-copy plasmid DNA [30]. All AMPAR subunits utilized in this study included the flip isoform received from S. F. Heinemann (Salk Institute, La Jolla, CA, USA) and sub-cloned in pRK for expression in Human Embryonic Kidney Cells 293 (HEK293T). The human embryonic kidney (HEK293T) cells were obtained from Sigma, Taufkirchen, Germany, and we only used the HEK293T cell line due to their ease of growth and transfection and wide utilization in cell culture. For the transfection, we used the constructs GluA1, GluA2, GluA2/3, and GluA1/2, along with the GFP-expressing construct, as described in our previous work. The transfection reagents utilized were jetPRIME (Polyplus: New York, NY, USA) or Lipofectamine 2000 (Invitrogen; San Diego, CA, USA). The highly fluorescent cells were identified and selected for recording. The selected cells were seeded in Dulbecco Modified Eagle Medium (DMEM) (Sigma, Roedermark, Germany) containing 10% FBS, 0.1 mg/mL streptomycin, and 1 mM sodium pyruvate (Biological Industries; Beit-Haemek, Israel). The cells were incubated at 37 °C with 5% CO2 added to the medium and subcultured twice a week until they reached passage #20. Following a day and a half, the cells were replated on coverslips covered with Laminin (1 mg/mL; Sigma, Roedermark, Germany) for electrophysiological recordings. Our previous work has detailed the DNA preparation, cDNA transient transfection, and cell culture of HEK293T [30, 31, 32, 33].
(§2) After that, a patch was placed in front of a rapid perfusion system comprised of a theta tube flow pipe mounted on a piezoelectric translator that was used to wash the cell continuously from one barrel while the other supplied the compound of interest to the cell. Recordings were conducted 36–48 h after transfection at 22 °C, with a membrane potential of −60 mV. Currents were amplified using an integrated patch amplifier (IPA, Sutter Instruments, Novato, CA, USA), filtered at 2 kHz, and digitized at 10 kHz using SutterPatch Software v. 1.1.1 [46]. […] The extracellular medium contained (in mM): 150 NaCl, 2.8 KCl, 0.5 MgCl2, 2 CaCl2, and 10 HEPES, pH 7.4 adjusted with NaOH. The holding potential was typically −60 mV. The sample size was determined to be eight viable cells to calculate the mean inhibition of the derivative of interest. The solution exchange time (10–90% to peak) was estimated at […] using open-tip control at the end of a recording. Inhibition was calculated by comparing the current observed when the cell was supplied with glutamate alone and when the same cell was supplied with both glutamate and the 2,3-BDZ compounds. The initial tube containing only glutamate was reintroduced to the cell to ensure cellular safety and authenticate the antagonist’s findings. This step ensured that the glutamate-induced current observed before the administration of the antagonist was nearly indistinguishable from the current observed after administration.
(§3) The experiment served two purposes: first, determining the whole-cell current amplitude ratio in the absence and presence of the compounds (A/AI) to derive a constant inhibitory value independent of the rate measurement. Second, as an independent control method, a fast exchange solution flow methodology was employed using piezoelectric actuators, providing the fastest exchange solution with open-tip current rise times in the 100–300 μs range to assess the amplitude of the whole-cell current. Detailed data analysis of this process is provided in the supporting information (Tables S1–S4).
(§4) The data acquired were analyzed using Igor Pro7 (Wave Metrics, Inc., Portland, OR, USA). Receptor desensitization (τw des) and deactivation rates were estimated by fitting the current decay starting from 95% of the peak to the baseline current using a double exponential formulation. […]

GluA1/2 = biological target: T2, GluA1/2 (Rattus norvegicus, UniProt P19490+P19491); test: Whole-cell patch-clamp recording of heteromeric GluA1/2 AMPAR expressed in HEK293T cells; conditions: for Amplitude with compound: 10 mM glutamate + 16 µM compound, mean±SEM; for Amplitude with compound / A/AI (current amplitude ratio without/with compound) / t deact (weighted deactivation time constant) / t des (weighted desensitization time constant) / Amplitude, applying glutamate alone after compound: n=8; for A/AI (current amplitude ratio without/with compound): 10 mM glutamate, 16 µM compound; for t deact (weighted deactivation time constant): 1 ms 10 mM glutamate + 16 µM compound; for t des (weighted desensitization time constant): 500 ms 10 mM glutamate + 16 µM compound; for Amplitude, applying glutamate alone after compound: washout/recovery
T2 construct: expressed in transfected cells; host or cells: HEK293T
T2 sequence (P19490 19-907 isoform P19490-2 limits assumed): as above
T2 sequence (P19491 22-883 isoform P19491-2 limits assumed): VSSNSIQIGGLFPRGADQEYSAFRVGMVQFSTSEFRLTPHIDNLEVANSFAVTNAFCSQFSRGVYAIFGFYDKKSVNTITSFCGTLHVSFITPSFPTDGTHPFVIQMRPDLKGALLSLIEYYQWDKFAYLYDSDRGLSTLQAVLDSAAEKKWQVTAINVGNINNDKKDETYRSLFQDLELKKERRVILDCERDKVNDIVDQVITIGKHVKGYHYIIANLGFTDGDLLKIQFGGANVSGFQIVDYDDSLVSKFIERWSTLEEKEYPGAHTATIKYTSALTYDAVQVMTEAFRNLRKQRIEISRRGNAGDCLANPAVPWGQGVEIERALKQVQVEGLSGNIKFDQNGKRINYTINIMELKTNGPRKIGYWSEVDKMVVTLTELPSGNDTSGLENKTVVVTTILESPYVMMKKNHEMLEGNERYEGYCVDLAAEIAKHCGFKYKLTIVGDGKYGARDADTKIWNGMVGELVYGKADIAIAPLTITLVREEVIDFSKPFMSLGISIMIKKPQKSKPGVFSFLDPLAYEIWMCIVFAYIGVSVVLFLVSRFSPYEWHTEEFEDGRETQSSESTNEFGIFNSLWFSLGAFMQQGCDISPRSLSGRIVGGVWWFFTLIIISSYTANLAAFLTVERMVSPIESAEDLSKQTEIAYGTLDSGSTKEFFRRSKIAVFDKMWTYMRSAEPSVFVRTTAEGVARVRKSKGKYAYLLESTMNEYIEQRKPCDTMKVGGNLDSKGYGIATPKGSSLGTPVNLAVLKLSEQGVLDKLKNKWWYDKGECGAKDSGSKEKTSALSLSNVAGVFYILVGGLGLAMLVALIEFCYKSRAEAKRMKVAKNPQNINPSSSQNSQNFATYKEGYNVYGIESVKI
Method: as §1, §2, §3, §4

GluA2 = biological target: T3, GluA2 (Rattus norvegicus, UniProt P19491); test: Whole-cell patch-clamp recording of homomeric GluA2 AMPAR expressed in HEK293T cells; conditions: for Amplitude with compound: 10 mM glutamate + 16 µM compound, mean±SEM; for Amplitude with compound / A/AI (current amplitude ratio without/with compound) / t deact (weighted deactivation time constant) / t des (weighted desensitization time constant) / Amplitude, applying glutamate alone after compound: n=8; for A/AI (current amplitude ratio without/with compound): 10 mM glutamate, 16 µM compound; for t deact (weighted deactivation time constant): 1 ms 10 mM glutamate + 16 µM compound; for t des (weighted desensitization time constant): 500 ms 10 mM glutamate + 16 µM compound; for Amplitude, applying glutamate alone after compound: washout/recovery
T3 construct: expressed in transfected cells; host or cells: HEK293T
T3 sequence (P19491 22-883 isoform P19491-2 limits assumed): as above
Method: as §1, §2, §3, §4

GluA2/3 = biological target: T4, GluA2/3 (Rattus norvegicus, UniProt P19491+P19492); test: Whole-cell patch-clamp recording of heteromeric GluA2/3 AMPAR expressed in HEK293T cells; conditions: for Amplitude with compound: 10 mM glutamate + 16 µM compound, mean±SEM; for Amplitude with compound / A/AI (current amplitude ratio without/with compound) / t deact (weighted deactivation time constant) / t des (weighted desensitization time constant) / Amplitude, applying glutamate alone after compound: n=8; for A/AI (current amplitude ratio without/with compound): 10 mM glutamate, 16 µM compound; for t deact (weighted deactivation time constant): 1 ms 10 mM glutamate + 16 µM compound; for t des (weighted desensitization time constant): 500 ms 10 mM glutamate + 16 µM compound; for Amplitude, applying glutamate alone after compound: washout/recovery
T4 construct: expressed in transfected cells; host or cells: HEK293T
T4 sequence (P19491 22-883 isoform P19491-2 limits assumed): as above
T4 sequence (P19492 23-888 isoform P19492-2 limits assumed): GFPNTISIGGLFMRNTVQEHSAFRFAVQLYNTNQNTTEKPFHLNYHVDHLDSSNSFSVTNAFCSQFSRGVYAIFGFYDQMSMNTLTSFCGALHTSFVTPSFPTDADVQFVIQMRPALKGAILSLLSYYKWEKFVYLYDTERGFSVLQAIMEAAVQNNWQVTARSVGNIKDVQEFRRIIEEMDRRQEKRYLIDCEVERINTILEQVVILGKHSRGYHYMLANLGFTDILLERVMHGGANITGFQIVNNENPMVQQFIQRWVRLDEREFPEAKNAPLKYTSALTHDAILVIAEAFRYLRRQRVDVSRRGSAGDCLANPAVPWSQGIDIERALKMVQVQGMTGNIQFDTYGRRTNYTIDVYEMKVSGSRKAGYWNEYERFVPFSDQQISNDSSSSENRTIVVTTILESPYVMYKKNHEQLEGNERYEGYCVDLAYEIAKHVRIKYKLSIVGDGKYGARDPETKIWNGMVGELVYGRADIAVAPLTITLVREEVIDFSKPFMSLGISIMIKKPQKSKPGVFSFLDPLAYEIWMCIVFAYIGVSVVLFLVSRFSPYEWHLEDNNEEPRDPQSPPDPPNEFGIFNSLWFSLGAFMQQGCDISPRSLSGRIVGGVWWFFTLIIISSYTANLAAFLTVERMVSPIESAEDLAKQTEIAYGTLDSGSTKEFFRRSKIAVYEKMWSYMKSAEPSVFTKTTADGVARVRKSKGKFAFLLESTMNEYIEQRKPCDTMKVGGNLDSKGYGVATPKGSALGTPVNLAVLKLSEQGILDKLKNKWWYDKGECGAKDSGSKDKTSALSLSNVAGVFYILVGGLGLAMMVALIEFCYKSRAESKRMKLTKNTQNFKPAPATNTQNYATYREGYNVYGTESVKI
Method: as §1, §2, §3, §4

AMPA receptor subunits = test: Whole-cell patch-clamp recording, statements over all tested AMPAR subunits (GluA1, GluA1/2, GluA2, GluA2/3) in HEK293T cells; conditions: 16 µM compound; for Effect on deactivation rate of the AMPAR subunits examined: 1 ms glutamate
Method: as §1, §2, §3, §4

[1] = log of IC50, read-out: Log IC50 (converted)
[2] = normalized peak current, -60 mV, pH 7.4, 22 °C, read-out: IC50

| Amplitude with compound (GluA1; -60 mV, pH 7.4, 22 °C) | A/AI (current amplitude ratio without/with compound) (GluA1) | t deact (weighted deactivation time constant) (GluA1) | IC50 (GluA1; [1]) | IC50 (GluA1; [2]) | Amplitude, applying glutamate alone after compound (GluA1) | Amplitude with compound (GluA1/2; -60 mV, pH 7.4, 22 °C) | A/AI (current amplitude ratio without/with compound) (GluA1/2) | t deact (weighted deactivation time constant) (GluA1/2) | IC50 (GluA1/2; [1]) | IC50 (GluA1/2; [2]) | Amplitude, applying glutamate alone after compound (GluA1/2) | Amplitude with compound (GluA2; -60 mV, pH 7.4, 22 °C) | A/AI (current amplitude ratio without/with compound) (GluA2) | t deact (weighted deactivation time constant) (GluA2) | IC50 (GluA2; [1]) | IC50 (GluA2; [2]) | Structure (SMILES) | t des (weighted desensitization time constant) (GluA1) | t des (weighted desensitization time constant) (GluA1/2) | t des (weighted desensitization time constant) (GluA2) | further results |
| --- | --- | --- | --- | --- | --- | --- | --- | --- | --- | --- | --- | --- | --- | --- | --- | --- | --- | --- | --- | --- | --- |
| 93±10.0 pA | 9.82±0.7 | 3.6 ± 0.3 ms | 3.47 µM | 3.51 µM | 914±40 pA | 53±3.0 pA | 9.91±0.6 | 3.9 ± 0.4 ms | 3.39 µM | 3.43 µM | 523±33 pA | 127±12.0 pA | 10.42±0.8 | 5.1 ± 0.4 ms | 3.39 µM | 3.36 µM | COc1cc(N)ccc1C1=NNC(=O)Cc2cc3c(cc21)OCO3 [2,3-BDZ-2, 1-(2-Methoxy-4-aminophenyl)-7,8-(methylenedioxy)-3,5-dihydro-4H-2,3-benzodiazepin-4-one] | 1.8 ± 0.1 ms | 3.8 ± 0.3 ms | 1.6 ± 0.05 ms | Amplitude, applying glutamate alone after compound (GluA2): 1310±42 pA; Amplitude with compound (GluA2/3; -60 mV, pH 7.4, 22 °C): 52±7.0 pA; A/AI (current amplitude ratio without/with compound) (GluA2/3): 10.28±0.6; t deact (weighted deactivation time constant) (GluA2/3): 4.8 ± 0.5 ms; t des (weighted desensitization time constant) (GluA2/3): 1.7 ± 0.08 ms; IC50 (GluA2/3; [1]): 3.47 µM; IC50 (GluA2/3; [2]): 3.45 µM; Amplitude, applying glutamate alone after compound (GluA2/3): 532±26 pA; Reduction in AMPAR subunit currents (AMPA receptor subunits): approximately 10 fold; Effect on deactivation rate of the AMPAR subunits examined (AMPA receptor subunits): nearly doubles; Reduction in the desensitization rate of the investigated subunits (AMPA receptor subunits; 500 ms glutamate): 1–2 fold |
| 277±14 pA | 3.41±0.2 | 2.3 ± 0.1 ms | 6.76 µM | 6.8 µM | 942±44 pA | 170±9 pA | 3.44±0.2 | 2.7 ± 0.2 ms | 6.76 µM | 6.69 µM | 583±40 pA | 364±17 pA | 3.68±0.1 | 2.7 ± 0.1 ms | 6.76 µM | 6.75 µM | COc1cc([N+](=O)[O-])ccc1C1=NNC(=O)Cc2cc3c(cc21)OCO3 [2,3-BDZ-4, 1-(2-Methoxy-4-nitrophenyl)-7,8-(methylenedioxy)-3,5-dihydro-4H-2,3-benzodiazepin-4-one] | 2.2 ± 0.1 ms | 5.0 ± 0.3 ms | 2.5 ± 0.1 ms | Amplitude, applying glutamate alone after compound (GluA2): 1340±52 pA; Amplitude with compound (GluA2/3; -60 mV, pH 7.4, 22 °C): 146±14 pA; A/AI (current amplitude ratio without/with compound) (GluA2/3): 3.56±0.3; t deact (weighted deactivation time constant) (GluA2/3): 2.8 ± 0.2 ms; t des (weighted desensitization time constant) (GluA2/3): 2.6 ± 0.2 ms; IC50 (GluA2/3; [1]): 6.76 µM; IC50 (GluA2/3; [2]): 6.69 µM; Amplitude, applying glutamate alone after compound (GluA2/3): 516±23 pA; Effect on desensitization rate (AMPA receptor subunits): no change; Reduction in AMPAR subunit currents (AMPA receptor subunits): 3 fold; Effect on deactivation rate of the AMPAR subunits examined (AMPA receptor subunits): no change |
